Reference: patent US9827338B2, “GRP-R agonistic 177-lutetium-labeled bombesin derivatives for diagnosis and treatment of prostate cancer” (KOREA ATOMIC ENERGY RESEARCH INSTITUTE, priority 2014, dated 2017)

Assays:
GRP-R [1] = molecular target: T1, GRP-R (Homo sapiens, UniProt P30550); experiment: Competitive binding with 125I-[Tyr4]-bombesin in PC-3 cells; conditions: competition with 125I-[Tyr4]-bombesin (20,000 CPM), 37° C., 1 hour
T1 construct: PC-3 cells were used as a human prostate cancer cell line; host or cells: PC-3 human prostate cancer cells
T1 sequence (P30550 whole entry): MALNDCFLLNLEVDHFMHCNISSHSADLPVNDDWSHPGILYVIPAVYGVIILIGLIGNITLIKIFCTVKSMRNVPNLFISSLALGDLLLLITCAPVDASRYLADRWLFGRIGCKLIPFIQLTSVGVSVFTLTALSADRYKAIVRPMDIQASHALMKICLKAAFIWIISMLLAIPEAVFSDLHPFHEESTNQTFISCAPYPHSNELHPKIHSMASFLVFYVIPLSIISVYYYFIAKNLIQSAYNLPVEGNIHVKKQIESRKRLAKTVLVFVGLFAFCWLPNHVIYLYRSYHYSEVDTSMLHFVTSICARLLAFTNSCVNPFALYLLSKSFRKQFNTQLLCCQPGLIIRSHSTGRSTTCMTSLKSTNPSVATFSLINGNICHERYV
Experimental: (§1) In order to confirm in vitro targeting efficiency of DOTA-gluBBN and 177Lu-DOTA-gluBBN prepared according to Examples 1 and 2 to prostate cancer cells, PC-3 cells were used as a human prostate cancer cell line. The PC-3 cells corresponding to the human prostate cancer cell line were purchased from Korean cell line bank. The PC-3 cells were cultured in a Roswell Park Memorial Institute (RPMI) 1640 medium containing 10% fetal bovine serum (FBS) at 37° C. in 5% CO2 atmosphere.
(§2) The cells were cultured in a disposable flask for cell culture, and at the time of an experiment, the cells were cultured in a 96-well or 12-well cell culture plate according to an experimental method and then used.
DOTA-gluBBN (10^−6 to 10^−12M) prepared according to Example 1 was co-cultured with 125I-[Tyr^4]-bombesin (20,000 CPM), respectively, in the PC-3 cells, which are human prostate cancer cells, to thereby carry out a competitive reaction. After culturing a cell plate at 37° C. for 1 hour, a reaction solution was recovered. After the cells were washed with PBS and recovered by 1N NaOH, radioactivity of each solution was measured using a gamma counter.

GRP-R [2] = molecular target: T1, GRP-R; experiment: Binding of 177Lu-DOTA-gluBBN in PC-3 cells (dissociation constant); conditions: 0.01 to 100 nM, 37° C., 2 hours
Experimental: as §1, §2
In addition, 177Lu-DOTA-gluBBN (0.01 to 100 nM) prepared according to Example 2 was reacted, respectively, in the PC-3 cells. After culturing a cell plate at 37° C. for 2 hours, a reaction solution was recovered. After the cells were washed with PBS and recovered by 1N NaOH, radioactivity of each solution was measured using a gamma counter.

[3] = In vivo distribution in PC-3 xenografted tumor mouse model; conditions: male, Balb/c nude, tumor (PC-3 xenograft), total radioactivity, prostate cancer cells (tumor), 1 hour after intravenous injection, 370 KBq, read-out: tumor uptake, percentage of the injected dose per unit weight
Experimental: In order to evaluate in vivo targeting efficiency of 177Lu-DOTA-gluBBN, in vivo distribution of 177Lu-DOTA-gluBBN in a tumor mouse model obtained by xenografting PC-3 cells, which are human prostate cancer cells, into a Balb/c nude mouse (Nara biotech, Korea) was evaluated. The tumor-bearing mouse model was prepared by subcutaneously injecting the PC-3 cells (1×10^7) into a right upper end of the shoulder of a male Balb/c nude mouse (7 weeks old) and allowing tumor to grow for 3 weeks. 177Lu-DOTA-gluBBN (370 KBq) was intravenously injected into a tail vein of the tumor mouse model. After […] of injection, the experimental animal was euthanized. Then, after the blood, the liver, the kidney, the spleen, the heart, the large intestine, the small intestine, the lung, the stomach, the pancreas, and the like, in addition to the tumor were extracted, weights of the organs were measured, and radioactivity of each organ was measured. 177Lu-DOTA-gluBBN uptake in each organ was expressed as percentage of the injected dose per unit weight (% ID/g). It was confirmed that 177Lu-DOTA-gluBBN targeted prostate cancer cells at 1 hour after intravenous injection with high efficiency (12.42±2.15% ID/g).

prostate cancer = experiment: Comparison of in vivo targeting efficiency to prostate cancer with comparative material 177Lu-AMBA; conditions: versus comparative material 177Lu-AMBA
Source text: As a material having prostate cancer targeting mechanism similar to that of the bombesin derivatives (177Lu-DOTA-gluBBN) using the bombesin derivatives, which is the GRP-R agonist, prepared according to Example 2, 177Lu-AMBA (comparative material (J. Nucl. Med. 47(7):1144-1152 (Non-Patient Document)), see compound in FIG. 1) is a prostate cancer targeting diagnosis and treatment material of which excellent targeting efficiency is recognized, such that currently a phase 1 clinical trial was terminated.

[4] = In vivo physiological toxicity (body weight); design: species or system mouse; conditions: therapeutic dose, early stage of administration, measured twice a week
Experimental: (§3) In order to confirm a toxicological effect by therapeutic dose, a body weight and histological states of organs were evaluated. The body weight was measured twice a week, and after euthanizing the animal model at the timing at which evaluation was terminated, spleen and kidney tissue was collected and H&E stained.

[5] = In vivo histological toxicity (spleen and kidney, H&E); design: species or system Balb/c nude mouse; conditions: therapeutic dose, H&E stained, versus normal and control group
Experimental: as §3

Row | Structure (SMILES) | IC50 (GRP-R [1]) [nM] | Kd (GRP-R [2]) [nM] | tissue uptake at 1 h [3] [%ID/g] | removal in the blood versus 177Lu-AMBA (prostate cancer) | body weight change [4] | histological toxicity in spleen and kidney [5]
1 | CSCC[C@H](NC(=O)[C@H](CC(C)C)NC(=O)[C@H](Cc1c[nH]cn1)NC(=O)CNC(=O)[C@@H](NC(=O)[C@H](C)NC(=O)[C@H](Cc1c[nH]c2ccccc12)NC(=O)[C@H](CCC(N)=O)NC(=O)c1ccc(NC(=O)[C@H](CCCCNC(=O)CO[C@@H]2[C@@H](O)[C@@H](O)O[C@H](CO)[C@H]2O)NC(=O)CN2CCN(CC(=O)O)CCN(CC(=O)O)CCN(CC(=O)O)CC2)cc1)C(C)C)C(N)=O [DOTA-gluBBN] | 4.67 |  |  |  |  | 
2 | CSCC[C@H](NC(=O)[C@H](CC(C)C)NC(=O)[C@H](Cc1c[nH]cn1)NC(=O)CNC(=O)[C@@H](NC(=O)[C@H](C)NC(=O)[C@H](Cc1c[nH]c2ccccc12)NC(=O)[C@H](CCC(N)=O)NC(=O)c1ccc(NC(=O)[C@H](CCCCNC(=O)CO[C@@H]2[C@@H](O)[C@@H](O)O[C@H](CO)[C@H]2O)NC(=O)CN2CCN(CC(=O)O)CCN(CC(=O)O)CCN(CC(=O)O)CC2)cc1)C(C)C)C(N)=O [177Lu-DOTA-gluBBN, metal not drawn] |  | ~0.63 | 12.4 ± 2.15 | more rapidly removed in the blood | there was not a great change in the body weight | not observed
